The molecules below were run against Human immunodeficiency virus type 1 protease (Human immunodeficiency virus 1, UniProt Q72874) (assay: Compound was tested for inhibitory activity against Human immunodeficiency virus (HIV-1) protease).
With `CC(C)(C)OC(=O)N[C@@H](Cc1ccccc1)[C@@H](O)C[C@]1(Cc2ccccc2)CCN([C@@H]2CS(=O)(=O)Cc3ccccc32)C1=O` the IC50 was 17 nM.
For `CC(C)[C@@H](CO)N1CC[C@@](Cc2ccccc2)(C[C@H](O)[C@H](Cc2ccccc2)NC(=O)OC(C)(C)C)C1=O`, the IC50 was 35 nM.
`O=C(N[C@@H](Cc1ccccc1)[C@@H](O)C[C@]1(Cc2ccccc2)CCN([C@@H]2CS(=O)(=O)Cc3ccccc32)C1=O)O[C@H]1CCOC1` gave an IC50 of 1.8 nM.
For `C[C@@H]1CC[C@@H](O)[C@H]1N1CC[C@@](Cc2ccccc2)(C[C@H](O)[C@H](Cc2ccccc2)NC(=O)OC(C)(C)C)C1=O`, the IC50 was 14 nM.
For `CC(C)(C)OC(=O)N[C@@H](Cc1ccccc1)[C@@H](O)CC1(Cc2ccccc2)CCN([C@H]2c3ccccc3C[C@H]2O)C1=O` (single isomer, unassigned), the IC50 was 37 nM.
With `O=C(N[C@@H](Cc1ccccc1)[C@@H](O)C[C@@H](Cc1ccccc1)C(=O)N[C@H]1c2ccccc2C[C@H]1O)O[C@H]1CCOC1` the IC50 was 0.06 nM.
For `CC(C)(C)OC(=O)N[C@@H](Cc1ccccc1)[C@@H](O)C[C@]1(Cc2ccccc2)CCN([C@@H]2CSCc3ccccc32)C1=O`, the IC50 was 111 nM.

Reference: ChEMBL document CHEMBL1127242, “Conformationally constrained HIV-1 protease inhibitors” (Bioorg Med Chem Lett, 1994)
